The results in this text go back to US20140128260A1, “Compositions and Methods for Post Emergent Weed Control with Dim Herbicides and Gibberellic Acid” (Valent U.S.A. Corporation, priority 2012, published 2014).

For one assay, the system named is Johnsongrass. Briefly: Effect of clethodim and GA3 treatments on Johnsongrass, field plots (Example 1). Format: in vivo, sorghum halepense. As to the method: In order to determine the efficacy of combinations of clethodim and GA3, numerous treatments were applied to plots in an area with abundant Johnsongrass growth.
The percent control of Johnsongrass plants was evaluated at 7, 18 and 28 days following the treatment. Effect of Clethodim and GA3 Treatments on Johnsongrass (% control).”
The percent control refers to the amount of dead tissue on the plants present. It would be dead plants plus desiccated foliage on partially killed plants.

Assay [1] concerns Glyphosate resistant corn. In words: Effect of clethodim and GA3 treatments on planted glyphosate resistant corn (Example 2). It is filed as in vivo. As to the method:
A further study was performed in order to confirm the effect clethodim and GA3 treatments have on corn. Glyphosate resistant corn was planted with a conventional four-row planter. Treatments were applied 28 days after the plantings.
Effect of Clethodim and GA3 Treatments on corn (% control).

Turning to `CCSC(C)CC1CC(=O)C(C(CC)=NOC/C=C/Cl)=C(O)C1` (centres unmarked) [Clethodim, 2-[1-[[[(2E)-3-chloro-2-propen-1-yl]oxy]imino]propyl]-5-[2-(ethylthio)propyl]-3-hydroxy-2-cyclohexen-1-one], the Johnsongrass % control is reported as 37.21% in the assay with Johnsongrass (7 DAT, clethodim 32 x g ai/a (9 fl oz/a of Selectmax), with 0.25% v/v NIS and 2.5 lb/acre AMS); 85.66% in the assay with Johnsongrass (18 DAT, clethodim 32 x g ai/a (9 fl oz/a of Selectmax), with 0.25% v/v NIS and 2.5 lb/acre AMS); 89.26% with Johnsongrass (28 DAT, clethodim 32 x g ai/a (9 fl oz/a of Selectmax), with 0.25% v/v NIS and 2.5 lb/acre AMS). Also, the Corn % control is 48.33% in assay [1] (6 DAT, clethodim 32 gm ai/a, with NIS and AMS); 88.33% in assay [1] (13 DAT, clethodim 32 gm ai/a, with NIS and AMS); 96.00% in assay [1] (29 DAT, clethodim 32 gm ai/a, with NIS and AMS). For the same compound, the “Activity of clethodim on corn in the presence of GA3” value in assay [1] (in vivo) is recorded as “significantly increased”.
Take `C=C1C[C@]23C[C@@]1(O)CC[C@H]2[C@@]12C=C[C@H](O)[C@@](C)(C(=O)O1)[C@H]2[C@@H]3C(=O)O` [GA3, Gibberellic acid]: the Johnsongrass % control in the assay on Johnsongrass (7 DAT, GA3 5 g ai/a (5 fl oz/a of ProGibb 4%)) is 0%; with Johnsongrass (7 DAT, GA3 25 g ai/a (25 fl oz/a of ProGibb 4%)) it was 0%; with Johnsongrass (18 DAT, GA3 5 g ai/a (5 fl oz/a of ProGibb 4%)), 0.32%; in the assay on Johnsongrass (18 DAT, GA3 25 g ai/a (25 fl oz/a of ProGibb 4%)), 0%; with Johnsongrass (28 DAT, GA3 5 g ai/a (5 fl oz/a of ProGibb 4%)) it was 0%; with Johnsongrass (28 DAT, GA3 25 g ai/a (25 fl oz/a of ProGibb 4%)), 0%. For the same compound, the “Effect of GA3 on the activity of clethodim on Johnsongrass” value with Johnsongrass (seven days following treatment) is recorded as “more than doubles the activity of clethodim”. Further, the Corn % control in assay [1] (6 DAT, GA3 3 g ai/a, with 0.25% v/v NIS and 2.5 lb/acre AMS) is given as 0%; in assay [1] (6 DAT, GA3 10 g ai/a, with NIS and AMS), 0%; in assay [1] (13 DAT, GA3 3 g ai/a, with NIS and AMS), 0%; in assay [1] (13 DAT, GA3 10 g ai/a, with NIS and AMS), 0%; in assay [1] (29 DAT, GA3 3 g ai/a, with NIS and AMS) it was 0%; in assay [1] (29 DAT, GA3 10 g ai/a, with NIS and AMS), 0%.
